Measured values reported in patent publication US20250051263A1, “NOVEL IONIZABLE LIPIDS AND LIPID NANOPARTICLES AND METHODS OF USING THE SAME” (Sail Biomedicines, Inc., priority 2021, published 2025).

Legend:
[1] = tested on: Balb/c mice; assay: In-vivo bioluminescent imaging after IV injection of Fluc mRNA LNP; details: Example 5 LNP (DOPE 35:16:46.5:2.5), IV, 5 μg FLUC + 5 μg EPO; for Bioluminescence (IV) Liver / Bioluminescence (IV) Lung / Bioluminescence (IV) Spleen / Bioluminescence (IV) Whole Body: 4-6 hours post-dose; for Spleen: Liver Ratio: ratio of bioluminescence
[2] = mRNA encapsulation efficiency, Quant-iT RiboGreen RNA Assay; type: physicochemical; details: Example 5 LNP lipid:DOPE:Plant Cholesterol:DMPE-PEG2k 35:16:46.5:2.5, FLUC/EPO 1:1 mRNA, N:P 6:1
[3] = LNP size and polydispersity, Zetasizer Ultra; type: physicochemical; details: Example 5 LNP lipid:DOPE:Plant Cholesterol:DMPE-PEG2k 35:16:46.5:2.5, FLUC/EPO 1:1 mRNA, N:P 6:1
Method in brief: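 Lipids dissolved in ethanol were combined with mRNA solution at a 1:3 volume ratio on a NanoAssemblr Ignite at 9 mL/min total flow. Particles were dialyzed in Slide-A-Lyzer G2 cassettes (10 k MWCO) against 1×PBS, then overnight at 4° C., concentrated with Amicon Ultra filters (100 k MWCO), and measured for size and polydispersity on a Zetasizer Ultra.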

Structure (SMILES)	Bioluminescence (IV) Liver [1]	Bioluminescence (IV) Lung [1]	Bioluminescence (IV) Spleen [1]	Bioluminescence (IV) Whole Body [1]	Spleen: Liver Ratio [1]	% EE [2]	PDI [3]	Size (nm) [3]
CCCCCCCCC(CCCCCCCC)OC(=O)CCCCCCCN(CCCCCCCC(=O)OC(CCCCCCCC)CCCCCCCC)CCNC(=O)CCCC(=O)NCCN(CCCCCCCC(=O)OC(CCCCCCCC)CCCCCCCC)CCCCCCCC(=O)OC(CCCCCCCC)CCCCCCCC [Compound 2320, 1-octylnonyl 8-[2-[[5-[2-[bis[8-(1-octylnonoxy)-8-oxo-octyl]amino]ethylamino]-5-oxo-pentanoyl]amino]ethyl-[8-(1-octylnonoxy)-8-oxo-octyl]amino]octanoate]	8.1E+07	4.0E+03	4.4E+05	9.5E+08	0.007	93.4%	0.15	126.1 nm
CCCCCC(CCCCC)CCCOC(=O)CCCCCCCN(CCCCCCCC(=O)OCCCC(CCCCC)CCCCC)CCNC(=O)CCC(=O)NCCN(CCCCCCCC(=O)OCCCC(CCCCC)CCCCC)CCCCCCCC(=O)OCCCC(CCCCC)CCCCC [Compound 2332, bis(4-pentyl-nonyl)13,16-dioxo-9,20-bis(8-oxo-8-((4-pentylnon-yl)oxy)octyl)-9,12,17,20-tetraazaocta-cosanedioate]	2.8E+07	–	3.5E+05	9.8E+07	0.045	98.0%	0.12	68.1 nm
CCCCCCCCCCCOC(=O)CCCCCN(CCCCCCCC(=O)OC(CCCCCCCC)CCCCCCCC)CCCNC(=O)CN(CC(=O)NCCCN(CCCCCCCC(=O)OC(CCCCCCCC)CCCCCCCC)CCCCCC(=O)OCCCCCCCCCCC)C(=O)CCN1CCCC1 [Compound 2353, 1-octylnonyl8-[3-[[2-[[2-[3-[[8-(1-octylnonoxy)-8-oxo-octyl]-(6-oxo-6-undecoxy-hexyl)amino]propylamino]-2-oxo-ethyl]-(3-pyrrolidin-1-ylpropanoyl)amino]acetyl]amino]propyl-(6-oxo-6-undecoxy-hexyl)amino]octanoate]	9.7E+03	3.2E+04	1.3E+05	7.8E+04	7.617	97.0%	0.14	85.2 nm
CCCCCCCCCCCC(=O)OCCCCCN(CCCCCCCC(=O)OC(CCCCCCCC)CCCCCCCC)CCNC(=O)CCC(=O)NCCN(CCCCCCCC(=O)OC(CCCCCCCC)CCCCCCCC)CCCCCOC(=O)CCCCCCCCCCC [Compound 2354, 5-[2-[[4-[2-[5-dodecanoyloxypentyl-[8-(1-octylnonoxy)-8-oxo-octyl]amino]ethylamino]-4-oxo-butanoyl]amino]ethyl-[8-(1-octylnonoxy)-8-oxo-octyl]amino] pentyl dodecanoate]	5.6E+06	6.2E+03	7.3E+05	4.5E+07	0.131	94.6%	0.10	69.2 nm
CCCCCCCCCC(C)COC(=O)CCCCCN(CCCCCCCC(=O)OC(CCCCCCCC)CCCCCCCC)CCNC(=O)CCC(=O)NCCN(CCCCCCCC(=O)OC(CCCCCCCC)CCCCCCCC)CCCCCC(=O)OCC(C)CCCCCCCCC (stereo not shown) [Compound 2355, 1-octylnonyl 8-[[6-(2-methylundecoxy)-6-oxo-hexyl]-[2-[[4-[2-[[6-(2-methylundecoxy)-6-oxo-hexyl]-[8-(1-octylnonoxy)-8-oxo-octyl]amino]ethylamino]-4-oxo-butanoyl]amino]ethyl]amino]octanoate]	1.8E+07	5.9E+03	4.6E+05	1.4E+08	0.026	94.9%	0.07	74.7 nm
CCCCCCCCCCC(CC)OC(=O)CCCCCN(CCCCCCCC(=O)OC(CCCCCCCC)CCCCCCCC)CCNC(=O)CCC(=O)NCCN(CCCCCCCC(=O)OC(CCCCCCCC)CCCCCCCC)CCCCCC(=O)OC(CC)CCCCCCCCCC (stereo not shown) [Compound 2356, 1-octylnonyl 8-[[6-(1-ethylundecoxy)-6-oxo-hexyl]-[2-[[4-[2-[[6-(1-ethylundecoxy)-6-oxo-hexyl]-[8-(1-octylnonoxy)-8-oxo-octyl]amino]ethylamino]-4-oxo-butanoyl]amino]ethyl]amino]octanoate]	1.3E+08	9.1E+03	1.3E+06	8.1E+08	0.010	95.0%	0.10	74.2 nm
CCCCCCCCCCC(CC)OC(=O)CCCCCN(CCCCCCCC(=O)OC(CCCCCCCC)CCCCCCCC)CCNC(=O)/C=C/C(=O)NCCN(CCCCCCCC(=O)OC(CCCCCCCC)CCCCCCCC)CCCCCC(=O)OC(CC)CCCCCCCCCC (stereo not shown) [Compound 2378, 1-octylnonyl 8-[[6-(1-ethylundecoxy)-6-oxo-hexyl]-[2-[[(E)-4-[2-[[6-(1-ethylundecoxy)-6-oxo-hexyl]-[8-(1-octylnonoxy)-8-oxo-octyl]amino]ethylamino]-4-oxo-but-2-enoyl]amino]ethyl]amino]octanoate]	1.6E+07	7.6E+03	2.2E+05	1.8E+08	0.007	93.0%	0.08	107.8 nm
CCCCCCCCCCCOC(=O)CCCCCN(CCCCCCCC(=O)OCCCC(CCCCC)CCCCC)CCNC(=O)/C=C/C(=O)NCCN(CCCCCCCC(=O)OCCCC(CCCCC)CCCCC)CCCCCC(=O)OCCCCCCCCCCC [Compound 2382, 4-pentylnonyl 8-[2-[[(E)-4-oxo-4-[2-[[8-oxo-8-(4-pentylnonoxy)octyl]-(6-oxo-6-undecoxy-hexyl)amino]ethylamino]but-2-enoyl]amino]ethyl-(6-oxo-6-undecoxy-hexyl)amino]octanoate]	1.9E+07	2.1E+04	2.1E+06	1.5E+08	0.104	87.3%	0.13	105.2 nm
CCCCCCCCCCCOC(=O)CCCCCN(CCCCCCCC(=O)OC(CCCCCC)CCCCCCCC)CCNC(=O)CCC(=O)NCCN(CCCCCCCC(=O)OC(CCCCCC)CCCCCCCC)CCCCCC(=O)OCCCCCCCCCCC (stereo not shown) [Compound 2390, 1-hexylnonyl 8-[2-[[4-[2-[[8-(1-hexylnonoxy)-8-oxo-octyl]-(6-oxo-6-undecoxy-hexyl)amino]ethylamino]-4-oxo-butanoyl]amino]ethyl-(6-oxo-6-undecoxy-hexyl)amino]octanoate]	1.9E+07	1.2E+04	1.7E+06	1.9E+08	0.094	90.6%	0.09	71.6 nm
CCCCCCCCCCCOC(=O)CCCCCN(CCCCCCCC(=O)OCCCC(CCCCC)CCCCC)CCN1CCN(CCN(CCCCCCCC(=O)OCCCC(CCCCC)CCCCC)CCCCCC(=O)OCCCCCCCCCCC)CC1 [Compound 2397, 4-pentylnonyl 8-[2-[4-[2-[[8-oxo-8-(4-pentylnonoxy)octyl]-(6-oxo-6-undecoxy-hexyl)amino]ethyl]piperazin-1-yl]ethyl-(6-oxo-6-undecoxy-hexyl)amino]octanoate]	1.4E+07	9.4E+03	6.5E+05	6.5E+07	0.052	94.0%	0.09	114.0 nm
